# Test results reported in patent EP4775577A1, “RAS INHIBITOR” (Tyligand Bioscience (Shanghai) Limited, priority 2023, dated 2025).
# Key:
# Ba/F3-KRAS-G12C-A59T = assay: Ba/F3 KRAS-mutant cell proliferation inhibition (CellCounting-Lite 2.0); type: cell-based; conditions: Mus musculus, BaF3, Ba/F3-KRAS-G12C-A59T (KC-2610), 72 h
# Source text: (§1) This experiment evaluated the proliferation inhibitory activity of the compounds of the present invention against Ba/F3-KRAS mutant cell lines by using the CellCounting-Lite®2.0 method.
# (§2) The following materials, reagents, and instruments were used in this experiment: Cells were all obtained from Kangyuan Bochuang Biotechnology (Beijing) Co., Ltd. RPMI-1640 (Hyclone, SH30809.01); fetal bovine serum (FBS) was used. (GIBCO, 10099-141); Phosphate-buffered saline (PBS) (Solarbio, P1020-500); CellCounting-Lite 2.0 Luminescent Cell Viability Assay (Vazyme, DD1101-02); 96-well plate (Absin, abs7016); Multifunctional microplate reader (BMG LABTECH, CLARIOstar® Plus); CO2 incubator (Thermo Scientific, Model 3100 Series).
# (§3) All cell lines were cultured in complete medium at 37°C and 5% CO2. Cells in the logarithmic growth phase were harvested and counted using a platelet counter. Cell viability was assessed using the trypan blue exclusion method to ensure a viability of over 90%. Cell density was adjusted using complete medium (RPMI 1640+10% FBS) and then seeded into 96-well cell culture plates at 90 µL per well, for a total of 3000 cells. The cells in the 96-well plates were cultured at 37°C and 5% CO2. A 10-fold drug solution was prepared using complete medium, and then 10 µL of each serially diluted compound was transferred to the corresponding wells of the 96-well cell culture plate, with two replicates for each drug concentration. The cells in the drug-treated 96-well plates were cultured at 37°C and 5% CO2 for 72 h, followed by CellCounting-Lite 2.0 analysis.
# (§4) The CellCounting-Lite 2.0 Luminescent Cell Viability Assay reagent was thawed and the cell plate was equilibrated to room temperature for 30 minutes. An equal volume of CellCounting-Lite 2.0 Luminescent Cell Viability Assay solution was added to each well and the plate was shaken on an orbital shaker for 5 minutes to lyse the cells. The cell plate was placed at room temperature for 20 minutes to stabilize the cryo-luminescence signal. The cryo-luminescence values were read and the data were collected.
# (§5) Data was analyzed using GraphPad Prism 7.0 software. A nonlinear S-curve regression was used to fit the data to derive the dose-response curve, and the IC50 value was calculated from this curve. [formula]
# Ba/F3-KRAS-G12S = assay: as above; type: cell-based; conditions: Mus musculus, BaF3, Ba/F3-KRAS-G12S (KC-2894), 72 h
# Source text: as §1, §2, §3, §4, §5
# Ba/F3-KRAS-G12R = assay: as above; type: cell-based; conditions: Mus musculus, BaF3, Ba/F3-KRAS-G12R (KC-2026), 72 h
# Source text: as §1, §2, §3, §4, §5
# Ba/F3-KRAS-G 12V = assay: as above; type: cell-based; conditions: Mus musculus, BaF3, Ba/F3-KRAS-G 12V (KC-1261), 72 h
# Source text: as §1, §2, §3, §4, §5
# Ba/F3-KRAS-G12C-Y96S = assay: as above; type: cell-based; conditions: Mus musculus, BaF3, Ba/F3-KRAS-G12C-Y96S (KC-2619), 72 h
# Source text: as §1, §2, §3, §4, §5
# Ba/F3-KRAS-G12D = assay: as above; type: cell-based; conditions: Mus musculus, BaF3, Ba/F3-KRAS-G12D (KC-1259), 72 h
# Source text: as §1, §2, §3, §4, §5
# [1] = test system: KRAS G12D mutant AGS cells; assay: Proliferation inhibition of AGS cells, CellTiter-Glo assay; type: cell-based, human; conditions: Homo sapiens, AGS, 72 h, 3 days, CTG; read-out: AGS IC50/nM
# Procedure, shortened: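 AGS cells at 1500 cells/well in F12K + 10% FBS were exposed for 3 days at 37°C to nine 3-fold dilutions from 10 µM top concentration, in duplicate. Viability read by CellTiter-Glo luminescence; IC50 (nM) from dose-response-inhibition fitting.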
# [2] = 0.05uM, read-out: Inhibition rate% @0.05uM
# [3] = 1uM, read-out: Inhibition rate% @1uM
compound,measurement,setting,value
"CCN1CC/C(=C\F)[C@](C)(COc2nc(N3Cc4c(COC)c(C(=O)N(C)C)nn4CC[C@@H]3C)c3cc(Cl)c(-c4c(F)ccc5sc(N)c(C#N)c45)c(F)c3n2)C1 (single isomer, unassigned) [Example 228A]",inhibition at 0.05 µM,Ba/F3-KRAS-G12C-A59T; [2],79.8%
same,inhibition at 1 µM,Ba/F3-KRAS-G12C-A59T; [3],95.1%
same,inhibition at 0.05 µM,Ba/F3-KRAS-G12S; [2],96.4%
same,inhibition at 1 µM,Ba/F3-KRAS-G12S; [3],98.8%
same,inhibition at 0.05 µM,Ba/F3-KRAS-G12R; [2],85.7%
same,inhibition at 1 µM,Ba/F3-KRAS-G12R; [3],97.6%
same,inhibition at 0.05 µM,Ba/F3-KRAS-G 12V; [2],99.9%
same,inhibition at 1 µM,Ba/F3-KRAS-G 12V; [3],100%
same,inhibition at 0.05 µM,Ba/F3-KRAS-G12C-Y96S; [2],45.4%
same,inhibition at 1 µM,Ba/F3-KRAS-G12C-Y96S; [3],74.9%
same,inhibition at 0.05 µM,Ba/F3-KRAS-G12D; [2],99.5%
same,inhibition at 1 µM,Ba/F3-KRAS-G12D; [3],99.8%
same,IC50,[1],< 1.5 nM
